Holding throughout (format): cell-based, E. coli
One experiment has as its system MS060520HM-PCISRAF18. The experiment can be described thus: Growth on blood agar containing 16 μg/ml tetracycline HCl. The following applies: 18 hours at 37° C. The method, then: (§1) Comparison of tetracycline resistance between Edema Vac F18 cells cured of plasmids that contain AMR genes (MS060520HM-PCISRAF18) and Entero Vac K88 cells cured of plasmids that contain AMR genes (MS-K88-030321HM-PC2BSRAK88) was performed as follows: preparing subcultures of MS060520HM-PCISRAF18 and MS-K88-030321HM-PC2BSRAK88 on blood agar containing 16 μg/ml tetracycline HCl, incubating for 18 hours at 37° C., and observing haemolytic growth.

For experiment [1], the system named is MS-K88-030321HM-PC2BSRAK88. The experiment is described as above. As to conditions: 18 hours at 37° C. How it is done:
as §1

Experiment [2] has as its system MS060520HM-PCISRAF18 cells. The experiment can be described thus: Tetracycline HCl serial dilution in TSB media, turbidity. How it is done: Further evaluation of tetracycline sensitivity of cured MS060520HM-PCISRAF 18 cells was performed as follows: inoculating 10 ml of TSB media with MS060520HM-PCISRAF18 cells, incubating at 37° C. for 22 hours on orbital shaker at 150 rpm, preparing 1:1 serial dilutions of 5 ml tetracycline HCL in TSB media (from stock of 640 mg tetracycline HCl in 5 ml ultrapure water), inoculating the serial dilutions with 10 ul of the fermentate.

The subject of experiment [3] is ECMS091703HM-SR (Entero Vac K88 cells cured of plasmids that contain AMR genes). Briefly: AMR disc testing on Mueller Hinton agar plates. How it is done:
(§2) AMR testing was performed comparing ECMS091703HM-SR and ECMS091703HM-competent cells cultured on Mueller Hinton agar plates using Neomycin (NE 30) and Sulfathiazine (ST 0.25) discs. A master plate of ECMS091703HM-SR was produced as follows: subculturing a colony of ECMS091703HM-SR from LB agar containing 5% sucrose on new LB agar containing 5% sucrose, incubating overnight at 37° C., and storing sealed at 2-8° C.

For experiment [4], the system named is ECMS091703HM-competent (competent Entero Vac K88 cells). Briefly: AMR disc testing on Mueller Hinton agar plates. The following applies: antibiotic disc. The method, then: as §2
Experiment [5] concerns MS112101HM-SR (Edema Vac F18 cells cured of plasmids that contain AMR genes). The experiment can be described thus: AMR disc testing on Mueller Hinton agar plates. How it is done:
(§3) AMR testing was performed comparing MS112101HM—SR, MS112101HM-AMR5, and MS112101HM-competent cells cultured on Mueller Hinton agar plates using Sulfatrim (SXT), Tetracycline (TE 30), Neomycin (NE 30), Sulfathiazine (ST 0.25), and Gentamicin (GM 10) discs.

For experiment [6], the system named is MS112101HM-competent (competent Edema Vac F18 cells). Briefly: AMR disc testing on Mueller Hinton agar plates. As to conditions: antibiotic disc. The method, then: as §3
The subject of experiment [7] is MS112101HM-AMR5 (Edema Vac F18 transformed with AMR5 plasmid). Briefly: AMR disc testing on Mueller Hinton agar plates. As to conditions: antibiotic disc, Mueller Hinton plates. How it is done: as §3

We go through two compounds from patent publication US20260097106A1, “AVIRULENT LIVE BACTERIAL VACCINES CURED OF PLASMIDS CONTAINING ANTIMICROBIAL RESISTANCE GENES” (Drs. Koehnk & Feldman, LLP, priority 2022, published 2026).

Take `CN(C)[C@@H]1C(O)=C(C(N)=O)C(=O)[C@@]2(O)C(O)=C3C(=O)c4c(O)cccc4[C@@](C)(O)[C@H]3C[C@@H]12.Cl` [Tet HCl, Tetracycline HCL]: the results for the “Tetracycline resistance (haemolytic growth)” value (in the experiment with MS060520HM-PCISRAF18; in experiment [1]) were “confirmed tetracycline resistance” and “did not display any tetracycline resistance”, respectively. The “Turbidity 8 hours post inoculation” value in experiment [2] (Tet HCl 2 μg/ml in TSB media) is on record as “Pos”; in experiment [2] (Tet HCl 4 μg/ml in TSB media), “Pos”; in experiment [2] (Tet HCl 8 μg/ml in TSB media), “Pos”; in experiment [2] (Tet HCl 16 μg/ml in TSB media) it was “Pos”; in experiment [2] (Tet HCl 32 μg/ml in TSB media), “Pos”; in experiment [2] (Tet HCl 64 μg/ml in TSB media) it was “Slight”. Besides, the “Turbidity 8 hours post inoculation” value in experiment [2] (Tet HCl 128 μg/ml in TSB media) is listed as “Neg”. For the same compound, the “Turbidity 24 hours post inoculation” value in experiment [2] (Tet HCl 2 μg/ml in TSB media), in experiment [2] (Tet HCl 4 μg/ml in TSB media), in experiment [2] (Tet HCl 8 μg/ml in TSB media), in experiment [2] (Tet HCl 16 μg/ml in TSB media), in experiment [2] (Tet HCl 32 μg/ml in TSB media) and in experiment [2] (Tet HCl 64 μg/ml in TSB media) was “Pos” in each case. For the same compound, the “Turbidity 24 hours post inoculation” value in experiment [2] (Tet HCl 128 μg/ml in TSB media) is reported as “Pos”. The “Concentration with inhibited growth” value in experiment [2] (tetracycline HCl in TSB media) was determined as 128 µg/mL.

Sulfathiazine [ST 0.25]: the “Ring measurement (radius, mm)” value in experiment [3] (antibiotic disc, Mueller Hinton plates, ECMS091703HM-SR) worked out at 20 mm; in experiment [4], 13 mm; in experiment [5] (antibiotic disc, Mueller Hinton plates, MS112101HM-SR), 15 mm; in experiment [6] it was 0 mm; in experiment [7] it was 18 mm. Also, the “Resistance of the strain to the antibiotic (in words)” value was “less resistance” in experiment [3] (disc test, ECMS091703HM-SR compared with ECMS091703HM-competent) and “less resistance” in experiment [5] (disc test, MS112101HM-SR compared with MS112101HM-competent).
